Reference: patent US20040038875A1, “Alpha 7nicotinic receptor screening assays” (priority 2002, published 2004)

Tests used:
[1] = target: T1, homomeric alpha 7 nicotinic receptors (Homo sapiens, UniProt P36544); settings: cited from earlier work
[2] = target: T2, human alpha 7 nicotinic receptor (Homo sapiens, UniProt P36544); assay: ACh-induced currents / Ca2+ flux in Xenopus oocytes expressing human alpha 7 nicotinic receptors (two microelectrode voltage clamp, intracellular recordings); assay type: cell-based
T2 construct: expressed in transfected cells; host or cells: Xenopus oocytes injected with in vitro transcribed alpha 7 subunit mRNA

hippocampal neurons = assay: Ca2+ flux into hippocampal neurons; assay type: cell-based
Description: This is of particular interest in relation to Alzheimer's Disease since the hippocampus is the major site of degeneration neuropathology associated with that disease.

[3] = tested on: neurons of the substantia nigra; settings: cited from earlier work
[4] = target: T3, neuronal chick homomeric alpha 7 nicotinic receptors (Gallus gallus, UniProt P22770); settings: in the μM range, chick receptor in oocytes; cited from earlier work
T3 construct: host or cells: oocytes

[5] = target: T1, homomeric alpha 7 nicotinic receptors; set-up: host or cells: oocytes; settings: in the μM range, human receptor in oocytes; cited from earlier work

T2 sequence (P36544 23-502): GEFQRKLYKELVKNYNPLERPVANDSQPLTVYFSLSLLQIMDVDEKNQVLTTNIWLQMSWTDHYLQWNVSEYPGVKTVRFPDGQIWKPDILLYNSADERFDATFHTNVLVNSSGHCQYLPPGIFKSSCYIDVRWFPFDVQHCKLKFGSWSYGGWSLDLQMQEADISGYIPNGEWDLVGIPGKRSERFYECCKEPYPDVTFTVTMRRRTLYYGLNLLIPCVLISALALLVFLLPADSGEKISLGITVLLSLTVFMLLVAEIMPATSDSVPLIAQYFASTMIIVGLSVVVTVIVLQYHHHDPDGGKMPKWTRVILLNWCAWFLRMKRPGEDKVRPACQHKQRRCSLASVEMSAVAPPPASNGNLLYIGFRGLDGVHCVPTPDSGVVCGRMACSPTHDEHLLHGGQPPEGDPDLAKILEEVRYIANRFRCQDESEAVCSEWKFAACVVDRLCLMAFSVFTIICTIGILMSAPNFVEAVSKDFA
T1 sequence (P36544 23-502): as above
T3 sequence (P22770 23-502 limits assumed): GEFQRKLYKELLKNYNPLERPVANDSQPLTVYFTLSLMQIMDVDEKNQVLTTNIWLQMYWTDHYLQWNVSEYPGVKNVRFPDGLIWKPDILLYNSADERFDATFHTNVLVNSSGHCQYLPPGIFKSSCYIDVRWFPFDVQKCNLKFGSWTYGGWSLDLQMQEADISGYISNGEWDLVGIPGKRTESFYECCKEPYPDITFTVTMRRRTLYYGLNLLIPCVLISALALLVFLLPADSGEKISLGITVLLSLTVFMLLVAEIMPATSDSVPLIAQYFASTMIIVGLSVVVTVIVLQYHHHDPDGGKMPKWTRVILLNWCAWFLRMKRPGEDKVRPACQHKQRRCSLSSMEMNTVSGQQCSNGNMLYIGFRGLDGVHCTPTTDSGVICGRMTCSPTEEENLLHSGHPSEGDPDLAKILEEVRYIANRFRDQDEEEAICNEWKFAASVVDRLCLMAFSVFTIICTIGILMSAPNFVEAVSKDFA

For `COc1ccc(/C=C2\CCCN=C2c2cccnc2)c(OC)c1` [GTS-21, 2,4-dimethoxybenzylidene anabaseine], the “functional selectivity compared to α4β2 nicotinic receptors” value [1] is given as “high functional selectivity”.

In the case of AEFHRWSSYMVHWK [Synaptica Peptide], the reversibility of effects [2] is reported as “reversible but recovery was slow”, the “effect on ACh-induced Ca2+ flux” value ([2]; 0.001 μM applied with ACh, no pre-incubation) is reported as “increased Ca^2+ flux” and the “Ca2+ current, intracellular recordings” value ([2]; 10 μM applied without ACh) is reported as “no Ca^2+ current was observed”. For the same molecule, the “current, intracellular recordings” value ([2]; 10 μM followed after 30 seconds by 100 μM ACh) was “reduced current compared to that observed with ACh alone”, the “effect on ACh-evoked response at high dose” value ([2]; high dose, range 10^−12 to 5×10^−6) was “enhancement of ACh-evoked response observed with low doses of the peptide was reversed” and the “effect on ACh-mediated responses” value ([2]; peptide applied, after 2 minutes co-application of peptide and ACh) was “inhibition of ACh-mediated responses”. The “Ca2+ flux into hippocampal neurons” value (hippocampal neurons) was “enhance Ca^2+ flux into hippocampal neurons which eventually switches off calcium channels”, the “calcium potentials induced by NMDA or direct depolarisation” value ([3]; initial effect) was “initially enhances calcium potentials” and the calcium entry ([3]; sustained application for a few minutes) was “reduction in calcium entry”.

For “Aβ1-42: Aβ1-42 fragment of human APP associated with Alzheimer's Disease [reference compound]”, the “modulation of calcium influx” value [3] is listed as “not observed”.

In the case of ivermectin, the acetyl choline-evoked currents [4] is listed as “strongly enhance” and the acetyl choline-evoked currents [5] is listed as “strongly enhance”.
